Data from patent US8648071B2, “Hydrazonamide compounds that modulate Hsp90 activity” (Synta Pharmaceuticals Corp., priority 2008, dated 2014).

Test system: Her2
Test: Degradation of Her2 in BT-474 cells, Western blot (Method 1)
Assay type: cell-based, human
Conditions: 0.5 μM, overnight
Method: Human high-Her2 breast carcinoma BT474 (HTB-20), SK-BR-3 (HTB-30) and MCF-7 breast carcinoma (HTB-22) from American Type Culture Collection, VA, USA were grown in Dulbecco's modified Eagle's medium with 4 mM L-glutamine and antibiotics (100 IU/ml penicillin and 100 μg/ml streptomycine; GibcoBRL). To obtain exponential cell growth, cells were trypsinized, counted and seeded at a cell density of 0.5×10^6 cells/ml regularly, every 3 days. All, experiments were performed on day 1 after cell passage.
BT-474 cells are treated with 0.5 μM, 2 μM, or 5 μM of 17AAG (a positive control) or 0.5 μM, 2 μM, or 5 μM of a compound of the invention overnight in DMEM medium. After treatment, each cytoplasmic sample is prepared from 1×10^6 cells by incubation of cell lysis buffer (#9803, Cell Signaling Technology) on ice for 10 minutes. The resulting supernatant used as the cytosol fractions is dissolved with sample buffer for SDS-PAGE and run on a SDS-PAGE gel, blotted onto a nitrocellulose membrane by using semi-dry transfer. Non-specific binding to nitrocellulose is blocked with 5% skim milk in TBS with 0.5% Tween at room temperature for 1 hour, then probed with anti-Her2/ErB2 mAb (rabbit IgG, #2242, Cell Signaling) and anti-Tubulin (T9026, Sigma) as housekeeping control protein. […]

Compound: C=CCNC1=C2C[C@@H](C)C[C@H](OC)[C@H](O)[C@@H](C)/C=C(\C)[C@H](OC(N)=O)[C@@H](OC)/C=C\C=C(/C)C(=O)NC(=CC1=O)C2=O [Compound 17AAG, 17-allylamino-17-demethoxygeldanamycin]
- degradation of Her2: partial degradation of Her2
